Source: ChEMBL document CHEMBL1201862, “PubChem BioAssay data set” (2004)
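Grown in 96-well plates, cells were treated for 48 hours with each compound at five concentrations. Insufficient inhibition: endpoint recorded as highest concentration tested. GI50 = concentration required for 50% inhibition of growth.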 Calls of active or inactive are those of the source. Rule as the data show it: active = GI50 up to about 1.1 µM and inactive = higher.

Tests used:
Experiment in all cases: DTP human tumour cell line panel, 48 h
DLD-1 = tested on: DLD-1
DMS-114 = tested on: DMS-114
DMS-273 = tested on: DMS-273
HOP-18 = tested on: HOP-18
KM-20L2 = tested on: KM-20L2
M19-MEL = tested on: M19-MEL
RXF 631 = tested on: RXF 631
SNB-78 = tested on: SNB-78
XF498 = tested on: XF498

Measured: GI50

CCCCCCCC[N+](C)(C)Cc1ccc(C[N+](C)(C)CCCCCCCC)cc1
inactive: DLD-1 35.4 µM | DMS-114 8.67 µM | DMS-273 3.84 µM | HOP-18 > 100 µM | KM-20L2 7.71 µM | M19-MEL 31.3 µM | RXF 631 > 100 µM | SNB-78 44.3 µM

CC(=O)OC1COC(Nc2ccc(C(C)=O)cc2)C(OC(C)=O)C1OC(C)=O (configuration not stated)
inactive: DLD-1 > 100 µM | DMS-114 > 100 µM | DMS-273 > 100 µM | HOP-18 > 100 µM | KM-20L2 > 100 µM | M19-MEL > 100 µM | RXF 631 > 100 µM | SNB-78 > 100 µM

c1ccc(SC(CCCCOC2CCCCO2)Sc2ccccc2)cc1 (configuration not stated)
inactive: DLD-1 > 100 µM | DMS-114 34.1 µM | DMS-273 > 100 µM | M19-MEL 46.6 µM | SNB-78 97.1 µM | XF498 > 100 µM

Cc1ccccc1-c1cc(=O)c2cc(C)c(C)c(C(=O)O)c2o1
inactive: DLD-1 > 100 µM | DMS-114 > 100 µM | DMS-273 > 100 µM | HOP-18 > 100 µM | KM-20L2 > 100 µM | M19-MEL > 100 µM | RXF 631 > 100 µM | SNB-78 > 100 µM | XF498 71.1 µM

O=C(NC(=O)c1cn(CCN2CCN(C(=O)NCCCCCCNC(=O)N3CCN(CCn4cc(C(=O)NC(=O)OCc5ccccc5)c(=O)[nH]c4=O)CC3)CC2)c(=O)[nH]c1=O)OCc1ccccc1
inactive: DLD-1 > 100 µM | DMS-114 > 100 µM | DMS-273 > 100 µM | HOP-18 > 100 µM | KM-20L2 > 100 µM | M19-MEL > 100 µM | RXF 631 > 100 µM | SNB-78 > 100 µM

COc1cc(/C=C2\[C@H]3c4c(c(OC)c(C)c(OC)c4OC)CC(C(=O)N2Cc2ccccc2)N3C)c(OC)c(C)c1OC
inactive: DLD-1 47.5 µM | DMS-273 15.5 µM | HOP-18 23.7 µM | KM-20L2 20.3 µM | M19-MEL 17.4 µM

CCOC(=O)CNC(=O)OCc1ccccc1
inactive: DLD-1 > 100 µM | DMS-114 > 100 µM | DMS-273 > 100 µM | M19-MEL > 100 µM | RXF 631 > 100 µM | SNB-78 > 100 µM | XF498 > 100 µM

COC(=O)CC1NC(=O)C1C(C)(OC)OC (configuration not stated)
inactive: DLD-1 > 100 µM | DMS-114 > 100 µM | DMS-273 > 100 µM | KM-20L2 > 100 µM | M19-MEL > 100 µM | RXF 631 > 100 µM | XF498 > 100 µM

CC1=C(c2ccccc2)CON(c2ccccc2)C1
inactive: DMS-114 31 µM | KM-20L2 31.4 µM | M19-MEL 38.7 µM | RXF 631 24.8 µM | SNB-78 39.9 µM | XF498 40.6 µM

CC(C)C(=S)N(C)O
inactive: DLD-1 2.73 µM | DMS-114 2.43 µM | KM-20L2 14.5 µM | M19-MEL 11.4 µM | RXF 631 11.7 µM | SNB-78 61.2 µM

O=C(O)CCCNS(=O)(=O)c1ccccc1
inactive: DLD-1 > 100 µM | DMS-273 > 100 µM | HOP-18 > 100 µM | KM-20L2 > 100 µM | M19-MEL > 100 µM | XF498 69.3 µM

CC(=O)Nc1ccc(C(=O)N2N=C(C)/C(=C/c3cccc([N+](=O)[O-])c3)C2=O)cc1
inactive: DLD-1 > 100 µM | DMS-114 > 100 µM | DMS-273 > 100 µM | HOP-18 > 100 µM | M19-MEL > 100 µM | SNB-78 > 100 µM

COC1CC2C3/C(=N/Nc4ccc([N+](=O)[O-])cc4[N+](=O)[O-])CCC2(C)C3C1 (configuration not stated)
inactive: DLD-1 > 10 µM | DMS-114 > 100 µM | DMS-273 > 10 µM | HOP-18 > 10 µM | KM-20L2 > 10 µM | M19-MEL > 10 µM | XF498 > 100 µM

O=C1c2ccccc2C(=O)N1C/C=C/CO
inactive: DLD-1 > 100 µM | DMS-114 > 100 µM | DMS-273 > 100 µM | HOP-18 > 100 µM | KM-20L2 > 100 µM | M19-MEL > 100 µM | SNB-78 > 100 µM

O=C1c2ccccc2C2C1N2C(=O)C(F)(F)F (configuration not stated)
inactive: DLD-1 > 100 µM | DMS-114 39.9 µM | DMS-273 > 100 µM | HOP-18 > 100 µM | KM-20L2 > 100 µM | M19-MEL > 100 µM | RXF 631 94.6 µM | XF498 > 100 µM

COC1OC2COC(c3ccccc3)OC2C(O)C1Br (configuration not stated)
inactive: DLD-1 > 100 µM | DMS-273 > 100 µM | HOP-18 > 100 µM | KM-20L2 > 10 µM | M19-MEL > 100 µM | SNB-78 > 100 µM | XF498 > 100 µM

CC(=O)O/N=C/c1ncccc1OC(C)=O
inactive: DLD-1 > 100 µM | DMS-114 > 100 µM | DMS-273 > 100 µM | HOP-18 > 100 µM | KM-20L2 > 100 µM | M19-MEL > 100 µM | RXF 631 > 100 µM | XF498 > 100 µM

O=S(=O)(O)C(F)(F)C(F)(F)C(F)(F)C(F)(F)F
inactive: DLD-1 > 100 µM | DMS-114 > 100 µM | DMS-273 > 100 µM | HOP-18 > 100 µM | KM-20L2 > 100 µM | M19-MEL > 100 µM | XF498 > 100 µM

C1=CC=C2NCCC/N=C3/C=CC=CC=C3NCCC/N=C\2C=C1
inactive: DLD-1 > 100 µM | DMS-114 > 100 µM | DMS-273 > 100 µM | KM-20L2 > 100 µM | M19-MEL > 100 µM | RXF 631 > 100 µM | SNB-78 > 100 µM | XF498 > 100 µM

COC(=O)[C@@H]1C(=O)O[C@@H](c2ccc(OC)c(OC)c2OC)[C@@H]1C(=O)OC.COC(=O)[C@H]1C(=O)O[C@@H](c2ccc(OC)c(OC)c2OC)[C@@H]1C(=O)OC
inactive: DLD-1 > 100 µM | DMS-114 > 100 µM | DMS-273 > 100 µM | KM-20L2 > 100 µM | M19-MEL > 100 µM | RXF 631 > 100 µM | SNB-78 > 100 µM | XF498 > 100 µM

CCOC(OC1=CCCC1)C(C)[Se]c1ccccc1 (configuration not stated)
inactive: DLD-1 21.6 µM | DMS-114 6.81 µM | DMS-273 16.9 µM | HOP-18 28.2 µM | KM-20L2 29.4 µM | M19-MEL 24.4 µM | RXF 631 16.5 µM | SNB-78 > 100 µM | XF498 20.4 µM

O=C1CC2Sc3ccccc3N=C2N1c1ccc(Cl)cc1Cl (configuration not stated)
inactive: DLD-1 32.7 µM | DMS-114 33 µM | HOP-18 > 100 µM | KM-20L2 > 100 µM | M19-MEL 50 µM | RXF 631 65.3 µM | SNB-78 65.8 µM | XF498 > 100 µM

COc1ccc2c3c([nH]c2c1[N+](=O)[O-])C(C)N(Cc1ccc([N+](=O)[O-])cc1)CC3 (configuration not stated)
inactive: DMS-273 6.24 µM | KM-20L2 10.8 µM | SNB-78 26.2 µM

CCN(CC)CCCNc1ccc2nnn3c4ccc(O)cc4c(=O)c1c23
inactive: DLD-1 3.48 µM | DMS-114 11.7 µM | DMS-273 3.44 µM | HOP-18 14.3 µM | KM-20L2 5.3 µM | M19-MEL 13.8 µM | RXF 631 1.88 µM | SNB-78 16.4 µM | XF498 15.5 µM

C/C(=C1/CCC/C(=C(/C)c2ccccc2)C1=O)c1ccccc1
inactive: DLD-1 43.4 µM | DMS-114 21.7 µM | DMS-273 32 µM | HOP-18 > 100 µM | KM-20L2 40.5 µM | M19-MEL 24.9 µM | SNB-78 36.5 µM | XF498 30.6 µM

COc1ccc(/C=N/NC(=O)C2=C(N)N(c3ccccc3)C(=C(C#N)C#N)S2)cc1
inactive: DLD-1 > 100 µM | HOP-18 > 100 µM | M19-MEL > 100 µM
